Read-outs that look alike come from different tables or passages of the source. Peptide text beside a SMILES is read from it.
Key:
ACE [1] = target: T1, ACE (Homo sapiens, UniProt P12821); test: Reported IC50 value of YP for ACE; format: biochemical; details: corresponds to 720 μM; read-out: IC50 value of YP for ACE, corresponding mass concentration (converted)
ACE [2] = target: T1, ACE; details: reported value; read-out: IC50 value of YP for ACE; cited from earlier work

T1 sequence (P12821 30-1306, species assumed): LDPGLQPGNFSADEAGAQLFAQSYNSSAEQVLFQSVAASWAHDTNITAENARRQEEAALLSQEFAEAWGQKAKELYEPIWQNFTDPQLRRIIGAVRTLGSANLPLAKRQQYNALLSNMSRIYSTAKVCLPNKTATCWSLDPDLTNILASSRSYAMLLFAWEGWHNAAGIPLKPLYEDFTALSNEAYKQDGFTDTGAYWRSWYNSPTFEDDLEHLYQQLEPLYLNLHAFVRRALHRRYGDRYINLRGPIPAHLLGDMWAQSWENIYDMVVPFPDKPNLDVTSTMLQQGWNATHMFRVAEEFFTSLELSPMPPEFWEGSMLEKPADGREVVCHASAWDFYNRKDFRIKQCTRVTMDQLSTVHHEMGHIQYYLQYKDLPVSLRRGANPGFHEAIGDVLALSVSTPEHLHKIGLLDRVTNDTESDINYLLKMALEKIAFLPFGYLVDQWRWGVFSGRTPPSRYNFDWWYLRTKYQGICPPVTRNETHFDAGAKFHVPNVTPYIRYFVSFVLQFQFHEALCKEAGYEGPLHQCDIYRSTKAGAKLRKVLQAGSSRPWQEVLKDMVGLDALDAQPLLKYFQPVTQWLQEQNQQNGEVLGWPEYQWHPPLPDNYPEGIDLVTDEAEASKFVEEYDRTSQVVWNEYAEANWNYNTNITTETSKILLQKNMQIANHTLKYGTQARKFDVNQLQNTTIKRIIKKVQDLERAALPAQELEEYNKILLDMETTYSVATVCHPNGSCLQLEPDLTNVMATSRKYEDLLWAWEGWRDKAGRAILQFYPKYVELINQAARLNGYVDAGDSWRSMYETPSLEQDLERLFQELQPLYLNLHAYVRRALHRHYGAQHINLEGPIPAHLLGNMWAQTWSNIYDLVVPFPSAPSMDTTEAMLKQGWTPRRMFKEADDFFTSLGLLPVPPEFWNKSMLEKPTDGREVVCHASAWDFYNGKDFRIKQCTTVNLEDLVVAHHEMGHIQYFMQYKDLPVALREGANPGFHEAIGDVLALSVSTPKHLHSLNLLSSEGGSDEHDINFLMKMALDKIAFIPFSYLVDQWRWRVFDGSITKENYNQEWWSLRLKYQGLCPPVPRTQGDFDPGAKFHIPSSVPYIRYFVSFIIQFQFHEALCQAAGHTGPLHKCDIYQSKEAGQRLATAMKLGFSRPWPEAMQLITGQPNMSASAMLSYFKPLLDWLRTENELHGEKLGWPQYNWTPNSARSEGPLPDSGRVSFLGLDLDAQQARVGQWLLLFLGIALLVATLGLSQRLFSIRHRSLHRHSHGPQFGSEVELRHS

- IC50 (ACE [1]): 719 µM
Compound: N[C@@H](Cc1ccc(O)cc1)C(=O)N1CCC[C@H]1C(=O)O [YP, Tyr-Pro] (H-Tyr-Pro-OH)
- IC50 (ACE [2]): 720 µM
